Read-outs that look alike come from different tables or passages of the source.
Key:
[1] = tested on: EGFR^T790M; conditions: read-out: IC50 EGFR^T790M; ref Aboelez et al.; cited from earlier work
[2] = tested on: EGFR^WT; conditions: read-out: IC50 EGFR^WT; ref Aboelez et al.; cited from earlier work
[3] = tested on: tubulin polymerization; conditions: read-out: antitubulin polymerization IC50; ref Aboelez et al.; cited from earlier work
[4] = tested on: A549 cell line; assay: MTT cytotoxicity test, A549 cell line; assay type: cell-based; conditions: Homo sapiens, A549, read-out: IC50 (μM) A549
[5] = tested on: MCF-7 cell line; assay: MTT cytotoxicity test, MCF-7 cell line; assay type: cell-based; conditions: Homo sapiens, MCF7, read-out: IC50 (μM) MCF-7
[6] = tested on: NIH3T3 cells; assay: MTT cytotoxicity test, NIH3T3 cell line; assay type: cell-based; conditions: Mus musculus, NIH3T3, read-out: IC50 (μM) NIH3T3
[7] = target: T1, COX-2 enzyme (Homo sapiens, UniProt P35354); assay: biochemical
T1 sequence (P35354 18-604): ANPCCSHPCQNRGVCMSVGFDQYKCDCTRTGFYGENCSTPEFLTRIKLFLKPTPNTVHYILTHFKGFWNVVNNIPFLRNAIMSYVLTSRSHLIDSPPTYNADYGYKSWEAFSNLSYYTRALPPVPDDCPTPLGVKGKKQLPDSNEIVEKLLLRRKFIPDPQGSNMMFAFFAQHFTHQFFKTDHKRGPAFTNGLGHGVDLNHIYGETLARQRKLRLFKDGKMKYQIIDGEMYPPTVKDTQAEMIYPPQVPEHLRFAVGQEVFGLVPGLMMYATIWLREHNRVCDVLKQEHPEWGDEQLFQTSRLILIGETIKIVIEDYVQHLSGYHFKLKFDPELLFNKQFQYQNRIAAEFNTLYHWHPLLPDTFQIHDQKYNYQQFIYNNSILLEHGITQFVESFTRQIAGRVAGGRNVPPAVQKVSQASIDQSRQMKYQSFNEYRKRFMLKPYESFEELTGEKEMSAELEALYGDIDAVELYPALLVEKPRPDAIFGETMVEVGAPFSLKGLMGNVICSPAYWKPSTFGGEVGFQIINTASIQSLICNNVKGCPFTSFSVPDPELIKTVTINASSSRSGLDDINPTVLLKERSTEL

[8] = target: EGFR enzyme (Homo sapiens, UniProt P00533); assay: EGFR kinase inhibition assay; assay type: biochemical
Chain of EGFR enzyme (P00533 25-1210): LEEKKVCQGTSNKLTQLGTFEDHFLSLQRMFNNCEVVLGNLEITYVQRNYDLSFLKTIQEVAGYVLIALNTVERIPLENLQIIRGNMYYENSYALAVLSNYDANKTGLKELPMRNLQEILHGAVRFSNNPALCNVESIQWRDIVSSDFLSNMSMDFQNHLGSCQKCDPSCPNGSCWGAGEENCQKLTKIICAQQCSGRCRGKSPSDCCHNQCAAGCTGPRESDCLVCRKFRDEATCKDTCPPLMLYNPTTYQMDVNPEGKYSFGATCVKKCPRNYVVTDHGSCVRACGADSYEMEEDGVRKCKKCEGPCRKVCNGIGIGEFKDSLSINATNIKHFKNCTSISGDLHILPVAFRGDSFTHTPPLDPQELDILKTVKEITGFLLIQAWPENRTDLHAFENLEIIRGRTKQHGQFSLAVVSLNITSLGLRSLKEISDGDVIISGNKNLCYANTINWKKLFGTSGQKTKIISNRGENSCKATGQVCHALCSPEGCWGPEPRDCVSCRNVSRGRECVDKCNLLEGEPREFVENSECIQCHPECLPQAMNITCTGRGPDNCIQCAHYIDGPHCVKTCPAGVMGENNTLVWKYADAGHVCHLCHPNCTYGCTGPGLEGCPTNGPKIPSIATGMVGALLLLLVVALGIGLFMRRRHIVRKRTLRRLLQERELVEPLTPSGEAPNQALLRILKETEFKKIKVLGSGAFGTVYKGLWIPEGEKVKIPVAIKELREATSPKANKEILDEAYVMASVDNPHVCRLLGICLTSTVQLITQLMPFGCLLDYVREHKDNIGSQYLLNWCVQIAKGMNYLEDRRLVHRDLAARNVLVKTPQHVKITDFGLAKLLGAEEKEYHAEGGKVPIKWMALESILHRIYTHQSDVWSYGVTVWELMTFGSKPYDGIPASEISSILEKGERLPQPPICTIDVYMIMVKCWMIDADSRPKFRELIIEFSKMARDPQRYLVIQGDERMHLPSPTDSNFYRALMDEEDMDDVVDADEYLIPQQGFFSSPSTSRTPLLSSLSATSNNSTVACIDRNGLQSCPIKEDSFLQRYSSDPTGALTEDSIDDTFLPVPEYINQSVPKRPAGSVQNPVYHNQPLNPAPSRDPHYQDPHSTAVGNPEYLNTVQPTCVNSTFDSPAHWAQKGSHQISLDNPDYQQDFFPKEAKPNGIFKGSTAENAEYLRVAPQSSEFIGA

[9] = tested on: MCF-7 cell line; assay: Flow cytometric apoptosis/necrosis analysis; assay type: cell-based; conditions: at the IC50 concentration
[10] = tested on: carbonic anhydrase IX (CA IX); conditions: ref Fadaly et al.; cited from earlier work
[11] = tested on: carbonic anhydrase XII (CA XII); conditions: ref Fadaly et al.; cited from earlier work
[12] = tested on: HDAC1; conditions: read-out: IC50 HDAC1; ref Mohamed et al.; cited from earlier work
[13] = tested on: HDAC2; conditions: read-out: IC50 HDAC2; ref Mohamed et al.; cited from earlier work
[14] = target: CA IX; conditions: read-out: inhibition constant CA IX; ref Mohamed et al.; cited from earlier work
[15] = target: CA XII; conditions: read-out: inhibition constant CA XII; ref Mohamed et al.; cited from earlier work
[16] = tested on: tubulin polymerization; conditions: read-out: IC50 antitubulin polymerization assay; ref Mohamed et al.; cited from earlier work
[17] = tested on: COX-2; conditions: ref Fadaly et al.; cited from earlier work
[18] = tested on: EGFR^WT; conditions: ref Fadaly et al.; cited from earlier work
[19] = tested on: EGFR^L858R/T790M; conditions: ref Fadaly et al.; cited from earlier work
[20] = tested on: CDK2; conditions: ref Abdalla et al.; cited from earlier work
[21] = tested on: CDK6; conditions: ref Abdalla et al.; cited from earlier work
[22] = tested on: CDK12; conditions: ref Abdalla et al.; cited from earlier work
[23] = tested on: topoisomerase II; conditions: ref Ewieda et al.; cited from earlier work
[24] = tested on: VEGFR-2; conditions: read-out: IC50 VEGFR-2; ref Abd El-Mawgoud et al.; cited from earlier work
[25] = tested on: AKT-1; conditions: read-out: IC50 AKT-1; ref Abd El-Mawgoud et al.; cited from earlier work

| Compound | IC50 [4] [µM] | IC50 [5] [µM] | IC50 [6] [µM] | IC50 [7] [µM] | other results |
| --- | --- | --- | --- | --- | --- |
| CC(=NNC(=O)c1sc2sc(C(=O)NN=C(C)c3ccccc3)c(N)c2c1N)c1ccccc1 [3,4-diamino-N′2,N′5-bis(1-phenylethylidene)thieno[2,3-b]thiophene-2,5-dicarbohydrazide] | – | – | – | – | IC50 [1]: 0.0246 µM; IC50 [2]: 0.0281 µM; IC50 [3]: 5.1 µM |
| O=C(CSc1nnc(NC(=O)c2ccc(Cl)c(Cl)c2)s1)Nc1ccccc1 [3a, 3,4-Dichloro-N-(5-((2-oxo-2-(phenylamino)ethyl)thio)-1,3,4-thiadiazol-2-yl)benzamide] | > 100 | > 100 | > 100 | 2.39 ± 0.104 | – |
| O=C(CSc1nnc(NC(=O)c2ccc(Cl)c(Cl)c2)s1)Nc1ccc(C(F)(F)F)cc1 [3b, 3,4-Dichloro-N-(5-((2-oxo-2-((4-(trifluoromethyl)phenyl)amino)ethyl)thio)-1,3,4-thiadiazol-2-yl)benzamide] | 46.5 ± 1.45 | > 100 | 67.1 ± 2.37 | > 1000 | – |
| O=C(CSc1nnc(NC(=O)c2ccc(Cl)c(Cl)c2)s1)Nc1ccc(Cl)cc1 [3d, 3,4-Dichloro-N-(5-((2-((4-chlorophenyl)amino)-2-oxoethyl)thio)-1,3,4-thiadiazol-2-yl)benzamide] | > 100 | > 100 | > 100 | 6.72 ± 0.312 | – |
| NS(=O)(=O)c1ccc(NC(=O)CSc2nnc(NC(=O)c3ccc(Cl)c(Cl)c3)s2)cc1 [3e, 3,4-Dichloro-N-(5-((2-oxo-2-((4-sulfamoylphenyl)amino)ethyl)thio)-1,3,4-thiadiazol-2-yl)benzamide] | > 100 | 11 ± 0.402 | 70.8 ± 2.5 | 0.32 ± 0.014 | – |
| O=C(CSc1nnc(NC(=O)c2ccc(Cl)cc2)s1)Nc1ccccc1 [3f, 4-Chloro-N-(5-((2-oxo-2-(phenylamino)ethyl)thio)-1,3,4-thiadiazol-2-yl)benzamide] | > 100 | > 100 | > 100 | 0.874 ± 0.039 | – |
| O=C(CSc1nnc(NC(=O)c2ccc(Cl)cc2)s1)Nc1ccc(C(F)(F)F)cc1 [3g, 4-Chloro-N-(5-((2-oxo-2-((4-(trifluoromethyl)phenyl)amino)ethyl)thio)-1,3,4-thiadiazol-2-yl)benzamide] | 21.1 ± 0.996 | 27.1 ± 1.26 | > 100 | > 100 | – |
| O=C(CSc1nnc(NC(=O)c2ccc(Cl)cc2)s1)Nc1ccc(Cl)cc1 [3i, 4-Chloro-N-(5-((2-((4-chlorophenyl)amino)-2-oxoethyl)thio)-1,3,4-thiadiazol-2-yl)benzamide] | > 100 | 12.1 ± 0.589 | 24.9 ± 1.18 | 3.78 ± 0.177 | – |
| NS(=O)(=O)c1ccc(NC(=O)CSc2nnc(NC(=O)c3ccc(Cl)cc3)s2)cc1 [3j, 4-Chloro-N-(5-((2-oxo-2-((4-sulfamoylphenyl)amino)ethyl)thio)-1,3,4-thiadiazol-2-yl)benzamide] | 20.7 ± 0.984 | 2.38 ± 0.108 | 85.6 ± 3.16 | 0.192 ± 0.008 | IC50 [8]: 0.02 ± 0.0008 µM; % early apoptosis ([9]; lower right quadrant): 20.20%; % necrosis ([9]; upper left quadrant): 4.08%; % late apoptosis ([9]; upper right quadrant): 15.56% |
| O=C(CSc1nnc(NC(=O)c2ccc(F)cc2)s1)Nc1ccccc1 [3k, 4-Fluoro-N-(5-((2-oxo-2-(phenylamino)ethyl)thio)-1,3,4-thiadiazol-2-yl)benzamide] | 69.1 ± 2.8 | > 100 | > 100 | > 1000 | – |
| O=C(CSc1nnc(NC(=O)c2ccc(F)cc2)s1)Nc1ccc(C(F)(F)F)cc1 [3l, 4-Fluoro-N-(5-((2-oxo-2-((4-(trifluoromethyl)phenyl)amino)ethyl)thio)-1,3,4-thiadiazol-2-yl)benzamide] | 41.1 ± 1.96 | 30.5 ± 1.37 | 46.2 ± 1.82 | – | IC50 ([7]; read-out: COX-2 IC50, fluorometric kit, 25 °C): 0.974 ± 0.045 µM |
| O=C(CSc1nnc(NC(=O)c2ccc(F)cc2)s1)Nc1ccc(Cl)cc1 [3n, 4-Fluoro-N-(5-((2-((4-chlorophenyl)amino)-2-oxoethyl)thio)-1,3,4-thiadiazol-2-yl)benzamide] | > 100 | > 100 | > 100 | 0.721 ± 0.03 | – |
| COc1ccc(C(=O)Nc2nnc(SCC(=O)Nc3ccccc3)s2)cc1 [3p, 4-Methoxy-N-(5-((2-oxo-2-(phenylamino)ethyl)thio)-1,3,4-thiadiazol-2-yl)benzamide] | > 100 | > 100 | > 100 | > 1000 | – |
| COc1ccc(C(=O)Nc2nnc(SCC(=O)Nc3ccc(C(F)(F)F)cc3)s2)cc1 [3r, 4-Methoxy-N-(5-((2-oxo-2-((4-(trifluoromethyl)phenyl)amino)ethyl)thio)-1,3,4-thiadiazol-2-yl)benzamide] | > 100 | 43.1 ± 2.06 | 47.6 ± 1.77 | > 100 | – |
| COc1ccc(C(=O)Nc2nnc(SCC(=O)Nc3ccc(Cl)cc3)s2)cc1 [3t, 4-Methoxy-N-(5-((2-oxo-2-((4-chlorophenyl)amino)ethyl)thio)-1,3,4-thiadiazol-2-yl)benzamide] | > 100 | > 100 | > 100 | > 100 | – |
| COc1ccc(-c2csc(N3N=C(c4nnn(-c5ccc(S(N)(=O)=O)cc5)c4C)CC3c3ccc(OC)cc3)n2)cc1 (centres unmarked) [4-(4-(5-(4-methoxyphenyl)-1-(4-(4-methoxyphenyl)thiazol-2-yl)-4,5-dihydro-1H-pyrazol-3-yl)-5-methyl-1H-1,2,3-triazol-1-yl)benzenesulfonamide] | – | – | – | – | activity against CA IX [10]: 0.025 µM; activity against CA XII [11]: 0.031 µM |
| NS(=O)(=O)c1ccc(NC(=O)COc2ccc(/C=C/C(=O)c3ccc(Br)cc3)cc2)cc1 [(E)-2-(4-(3-(4-bromophenyl)-3-oxoprop-1-en-1-yl)phenoxy)-N-(4-sulfamoylphenyl)acetamide] | – | – | – | – | IC50 [12]: 0.134 µM; IC50 [13]: 0.0663 µM; Ki [14]: 0.072 ± 0.00258 µM; Ki [15]: 0.0508 ± 0.00258 µM; IC50 [16]: 2.56 µM |
| CS(=O)(=O)c1ccc(-n2cc(/C=N/c3ccc(NC(=O)CO[N+](=O)[O-])cc3)c(-c3ccc(Br)cc3)n2)cc1 [(E)-2-((4-(((3-(4-bromophenyl)-1-(4-(methylsulfonyl)phenyl)-1H-pyrazol-4-yl)methylene)amino)phenyl)amino)-2-oxoethyl nitrate] | – | – | – | – | activity against COX-2 [17]: 0.437 µM; activity against EGFR^WT [18]: 0.452 µM; activity against EGFR^L858R/T790M [19]: 0.031 µM |
| Nc1ccccc1C(=O)O [Anthranilic acid] | – | – | – | – | activity against CDK2 [20]: 0.67 µM; activity against CDK6 [21]: 0.48 µM; activity against CDK12 [22]: 0.82 µM |
| Br.CCOC(=O)C1=C(c2ccccc2)N=C2SC=C(c3ccc(C)cc3)N2C1c1ccc(Br)cc1 (centres unmarked) [Ethyl 5-(4-bromophenyl)-3-(4-methylphenyl)-7-phenyl-5H-thiazolo[3,2-a]pyrimidine-6-carboxylate hydrobromide] | – | – | – | – | activity against topoisomerase [23]: 0.94 µM |
| Nc1nc2c3c(N)c(-c4nnc(NC(=O)c5ccccc5)s4)sc3ncn2n1 [N-(5-(2,9-diaminothieno[3,2-e]1,3,4-triazolo[1,5-c]pyrimidin-8-yl)-1,3,4-thiadiazol-2-yl)benzamide] | – | – | – | – | IC50 [24]: 0.164 µM; IC50 [25]: 0.452 µM |
| COc1cccc2c1C(=O)c1c(O)c3c(c(O)c1C2=O)C[C@@](O)(C(=O)CO)C[C@@H]3O[C@H]1C[C@H](N)[C@H](O)[C@H](C)O1 [doxorubicin, reference compound] | – | – | > 100 | – | – |

Reference: paper PMC12756739 (ACS Omega, 2025)
